Measurements reported in patent publication US6858638B2, “Substituted indazoles, compositions containing them, method of production and use” (Aventis Pharma S.A., priority 2002, dated 2005).
Where a name gives a salt, the structure may show the parent alone.

Key:
human FAK = molecular target: T1, human FAK (Homo sapiens, UniProt Q05397); test: FAK autophosphorylation inhibition, time resolved fluorescence (HTRF) assay; type: biochemical; conditions: 10 μM (values without asterisk); read-out: FAK % inhib at 10 μM
T1 construct: The complete cDNA of human FAK; made in house; host or cells: baculovirus expression system (vector pFastBac HTc)
Procedure, shortened: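 Autophosphorylation was detected by europium-cryptate anti-pTyr and XL665 anti-His energy transfer, percent inhibition from the 665/620 ratio relative to no-compound wells. Enzyme: His-FAK full length, 6.6 µg/ml, incubated 1 h at 37 °C, pH 7.2, 15 µM ATP.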

[1] = molecular target: T2, human IGF1R cytoplasmic domain (Homo sapiens, UniProt P08069); test: IGF1R autophosphorylation inhibition, time resolved fluorescence (HTRF) assay; type: biochemical; conditions: 10 μM; read-out: IGF1R % inhib at 10 μM
T2 construct: The human IGF1R cytoplasmic domain was cloned; made in house; host or cells: SF21 insect cells (baculovirus)
Procedure, shortened: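 GST-tagged human IGF1R cytoplasmic domain from SF21 cells incubated with compound in 50 mM Hepes pH 7.5, 5 mM MnCl2, 50 mM NaCl, […] ATP. Autophosphorylation detected by HTRF (Eu-K anti-phosphotyrosine, XL665 anti-GST) after EDTA/KF stop; percentage inhibition versus no-compound control.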

human KDR enzyme = molecular target: T3, human KDR enzyme (Homo sapiens, UniProt P35968); test: KDR substrate (PLCγ) phosphorylation, scintillation assay; type: biochemical; conditions: 10 μM; read-out: KDR % inhib at 10 μM
T3 construct: The cytoplasmic domain of the human KDR enzyme; GST; made in house; host or cells: SF21 insect cells (baculovirus)
Procedure, shortened: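 Values are percent inhibition relative to the compound-free control, read by scintillation counting of 33P incorporation after EDTA stop. Baculovirus/SF21-expressed GST-KDR cytoplasmic domain (100 ng) acted for 1 h at 37 °C in pH 7.2 MOPS kinase buffer. The substrate was GST-PLCγ SH2-SH3 (2 μg), added with γ33P-ATP and 2 μM unlabeled ATP.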

Aurora2 kinase = molecular target: T4, Aurora2 kinase (Homo sapiens, UniProt O14965); test: Aurora2 kinase radioactivity scintillation assay using nickel chelate (NuMA substrate); type: biochemical; conditions: 10 μM; read-out: Aurora2 % inhib at 10 μM
T4 construct: A complete recombinant Aurora2 enzyme; His tag (N); made in house; host or cells: E. coli
T4 sequence (O14965 1-403): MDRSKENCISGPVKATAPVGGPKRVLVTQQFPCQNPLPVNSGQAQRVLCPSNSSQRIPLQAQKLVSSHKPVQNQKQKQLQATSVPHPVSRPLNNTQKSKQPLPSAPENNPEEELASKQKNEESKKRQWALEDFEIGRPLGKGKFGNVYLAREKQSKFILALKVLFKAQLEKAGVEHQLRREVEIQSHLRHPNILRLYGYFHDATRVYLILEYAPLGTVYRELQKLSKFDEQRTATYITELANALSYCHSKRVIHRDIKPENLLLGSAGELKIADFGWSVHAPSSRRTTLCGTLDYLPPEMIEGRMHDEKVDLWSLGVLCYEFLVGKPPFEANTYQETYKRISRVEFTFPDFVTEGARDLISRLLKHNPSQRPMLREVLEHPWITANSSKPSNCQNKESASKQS
Procedure, shortened: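 Read-out is 33P incorporation into His-NuMA (Q1687-H2101, 0.5 μM) captured on nickel chelate, after 30 min at 37 °C with 0.02 μM His-Aurora2 and 1 μM ATP. Expressed as percentage inhibition of uncompounded control activity, background subtracted.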

T2 sequence (P08069 960-1367 limits assumed): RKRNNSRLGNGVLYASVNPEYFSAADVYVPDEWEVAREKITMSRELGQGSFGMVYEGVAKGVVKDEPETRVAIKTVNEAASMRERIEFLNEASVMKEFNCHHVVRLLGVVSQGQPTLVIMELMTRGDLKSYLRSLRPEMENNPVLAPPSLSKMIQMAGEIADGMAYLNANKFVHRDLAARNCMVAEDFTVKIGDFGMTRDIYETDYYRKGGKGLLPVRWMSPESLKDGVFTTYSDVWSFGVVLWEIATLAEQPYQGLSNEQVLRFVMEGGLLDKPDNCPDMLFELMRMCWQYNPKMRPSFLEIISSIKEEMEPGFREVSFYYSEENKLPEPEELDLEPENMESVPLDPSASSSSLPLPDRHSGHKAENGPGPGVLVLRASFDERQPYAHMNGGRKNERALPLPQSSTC
T3 sequence (P35968 786-1356 limits assumed): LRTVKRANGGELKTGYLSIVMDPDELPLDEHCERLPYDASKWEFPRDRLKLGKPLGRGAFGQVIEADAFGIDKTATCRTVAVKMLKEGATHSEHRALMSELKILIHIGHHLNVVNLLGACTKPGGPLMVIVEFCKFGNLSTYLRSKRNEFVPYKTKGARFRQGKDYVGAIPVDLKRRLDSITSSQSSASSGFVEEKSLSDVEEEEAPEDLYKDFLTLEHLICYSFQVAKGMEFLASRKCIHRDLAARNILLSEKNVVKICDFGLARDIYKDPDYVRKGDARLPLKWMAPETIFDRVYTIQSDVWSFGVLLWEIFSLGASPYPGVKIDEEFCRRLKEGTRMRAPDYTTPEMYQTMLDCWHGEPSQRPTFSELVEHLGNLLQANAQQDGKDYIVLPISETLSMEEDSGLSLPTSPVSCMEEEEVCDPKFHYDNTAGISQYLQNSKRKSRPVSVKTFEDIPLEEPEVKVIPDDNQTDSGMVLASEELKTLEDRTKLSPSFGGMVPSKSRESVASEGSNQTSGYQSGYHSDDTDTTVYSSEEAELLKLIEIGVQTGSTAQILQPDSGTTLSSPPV
T1 sequence (Q05397 whole entry): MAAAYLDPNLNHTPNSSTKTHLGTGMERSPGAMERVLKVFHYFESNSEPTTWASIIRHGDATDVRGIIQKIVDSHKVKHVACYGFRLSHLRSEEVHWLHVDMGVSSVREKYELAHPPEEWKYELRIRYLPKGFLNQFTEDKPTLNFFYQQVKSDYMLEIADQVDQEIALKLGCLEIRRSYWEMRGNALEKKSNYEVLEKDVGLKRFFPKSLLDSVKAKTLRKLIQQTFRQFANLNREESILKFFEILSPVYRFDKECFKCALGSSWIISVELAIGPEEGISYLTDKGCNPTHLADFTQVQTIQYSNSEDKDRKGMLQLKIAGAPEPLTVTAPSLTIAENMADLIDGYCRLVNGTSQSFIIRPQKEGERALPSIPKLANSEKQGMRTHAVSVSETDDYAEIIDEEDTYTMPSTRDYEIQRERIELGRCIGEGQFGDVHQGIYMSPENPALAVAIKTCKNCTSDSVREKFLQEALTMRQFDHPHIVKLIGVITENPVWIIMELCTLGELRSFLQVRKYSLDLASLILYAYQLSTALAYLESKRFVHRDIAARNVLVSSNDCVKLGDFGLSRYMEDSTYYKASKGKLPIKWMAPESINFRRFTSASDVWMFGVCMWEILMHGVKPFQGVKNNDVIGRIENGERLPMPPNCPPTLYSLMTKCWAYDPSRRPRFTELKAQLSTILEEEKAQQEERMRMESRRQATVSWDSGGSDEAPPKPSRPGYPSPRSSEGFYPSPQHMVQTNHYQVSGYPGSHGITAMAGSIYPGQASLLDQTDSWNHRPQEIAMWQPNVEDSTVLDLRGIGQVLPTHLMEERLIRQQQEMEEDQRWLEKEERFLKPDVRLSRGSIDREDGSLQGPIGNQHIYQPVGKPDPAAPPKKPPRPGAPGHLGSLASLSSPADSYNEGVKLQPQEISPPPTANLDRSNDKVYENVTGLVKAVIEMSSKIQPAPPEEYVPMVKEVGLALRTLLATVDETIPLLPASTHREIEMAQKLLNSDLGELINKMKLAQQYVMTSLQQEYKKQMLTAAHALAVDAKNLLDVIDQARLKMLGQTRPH

Structure (SMILES)	melting point [°C]	inhibition at 10 µM (human FAK) [%]	inhibition at 10 µM [1] [%]	inhibition at 10 µM (human KDR enzyme) [%]	inhibition at 10 µM (Aurora2 kinase) [%]
O=S(=O)(Oc1ccc2[nH]ncc2c1)c1cccc(F)c1 (as salt: benzenesulfonate) [Example 17, 1H-Indazol-5-yl 3-fluorobenzenesulfonate]	104				
CS(=O)(=O)c1ccccc1S(=O)(=O)Nc1ccc2[nH]nc(C#N)c2c1 (hydrate or solvate) [Example 5, N-(3-Cyano-1H-indazol-5-yl)-2-methylsulfonylbenzenesulfonamide]	272				
CS(=O)(=O)Nc1n[nH]c2ccc(NS(=O)(=O)c3cccc(F)c3)cc12 (hydrate or solvate) [Example 27, 3-Fluoro-N-(3-methylsulfonylamino-1H-indazol-5-yl)benzenesulfonamide]	230				
CC(=O)Nc1n[nH]c2ccc(NS(=O)(=O)c3cccc(F)c3)cc12 (hydrate or solvate) [Example 28, N-[5-(3-Fluorobenzenesulfonylamino)-1H-indazol-3-yl)acetamide]	246				
O=C(Nc1n[nH]c2ccc(NS(=O)(=O)c3cc(F)cc(F)c3)cc12)c1ccccc1 (hydrate or solvate) [Example 46, N-[5-(3,5-Difluorobenzenesulfonylamino)-1H-indazol-3-yl]benzamide]	246				
CC(=O)Nc1ccccc1-c1n[nH]c2ccc(NS(=O)(=O)c3cccc(F)c3)cc12 (hydrate or solvate) [Example 47, N-{2-[5-(3-Fluorobenzenesulfonylamino)-1H-indazol-3-yl]phenyl}acetamide]	135				
CS(=O)(=O)c1ccccc1S(=O)(=O)Nc1ccc2[nH]nc(-c3ccc(C(=O)O)cc3)c2c1 (hydrate or solvate) [Example 69, 4-[5-(2-Methylsulfonylbenzenesulfonamino)-1H-indazol-3-yl]benzoic acid]	199				
O=S(=O)(Nc1ccc2[nH]ncc2c1)c1ccc(Cl)c(Cl)c1 [Example 14, 3,4-Dichloro-N-(1H-indazol-5-yl)benzenesulfonamide]	209	42			
CS(=O)(=O)c1ccccc1S(=O)(=O)Nc1ccc2[nH]nc(-c3ccc(OCc4ccccc4)cc3)c2c1 [Example 209, N-[3-(4-Benzyloxyphenyl)-1H-indazol-5-yl]-2-methanesulfonyl-benzenesulfonamide]		55	16	34	67
CS(=O)(=O)c1ccccc1S(=O)(=O)Nc1ccc2[nH]nc(-c3ccc(-c4ccccc4)c(F)c3)c2c1 [Example 210, N-[3-(2-Fluorobiphenyl-4-yl)-1H-indazol-5-yl]-2-methanesulfonyl-benzenesulfonamide]		70	0	50	65
CS(=O)(=O)c1ccccc1S(=O)(=O)Nc1ccc2[nH]nc(-c3cc(Br)cc(Br)c3)c2c1 [Example 211, N-[3-(3,5-Dibromophenyl)-1H-indazol-5-yl]-2-methanesulfonyl-benzenesulfonamide]		95	45	21	79
CS(=O)(=O)c1ccccc1S(=O)(=O)Nc1ccc2[nH]nc(-c3ccc(Br)cc3F)c2c1 [Example 212, N-[3-(4-Bromo-2-fluoro-phenyl)-1H-indazol-5-yl]-2-methanesulfonyl-benzenesulfonamide]		72	65	47	86
CCSc1ccc(-c2n[nH]c3ccc(NS(=O)(=O)c4ccccc4S(C)(=O)=O)cc23)cc1 [Example 213, N-[3-(4-Ethylsulfanylphenyl)-1H-indazol-5-yl]-2-methanesulfonyl-benzenesulfonamide]		80	77	68	89
COc1ccc(-c2n[nH]c3ccc(NS(=O)(=O)c4ccccc4S(C)(=O)=O)cc23)c(OC)c1OC [Example 214, 2-Methanesulfonyl-N-[3-(2,3,4-trimethoxyphenyl)-1H-indazol-5-yl]-benzenesulfonamide]		60	21	56	67
CS(=O)(=O)c1ccccc1S(=O)(=O)Nc1ccc2[nH]nc(-c3ccc(C#N)cc3)c2c1 [Example 216, N-[3-(4-Cyanophenyl)-1H-indazol-5-yl]-2-methanesulfonyl-benzenesulfonamide]		96	86	32	91
CS(=O)(=O)c1ccccc1S(=O)(=O)Nc1ccc2[nH]nc(-c3ccc(F)cc3F)c2c1 [Example 217, N-[3-(2,4-Difluorophenyl)-1H-indazol-5-yl]-2-methanesulfonyl-benzenesulfonamide]		95	83	70	92
CS(=O)(=O)c1ccccc1S(=O)(=O)Nc1ccc2[nH]nc(-c3ccc(I)cc3)c2c1 [Example 218, N-[3-(4-Iodophenyl)-1H-indazol-5-yl]-2-methanesulfonyl-benzenesulfonamide]		15	20	37	68
CS(=O)(=O)c1ccccc1S(=O)(=O)Nc1ccc2[nH]nc(-c3cccc(OC(F)(F)F)c3)c2c1 [Example 219, N-[3-(3-Trifluoromethoxy-phenyl)-1H-indazol-5-yl]-2-methanesulfonyl-benzenesulfonamide]		87	60	31	86
CS(=O)(=O)c1ccc(-c2n[nH]c3ccc(NS(=O)(=O)c4ccccc4S(C)(=O)=O)cc23)cc1 [Example 220, 2-Methanesulfonyl-N-[3-(4-methanesulfonylphenyl)-1H-indazol-5-yl]-benzenesulfonamide]		96	75	88	95
CS(=O)(=O)c1ccccc1S(=O)(=O)Nc1ccc2[nH]nc(-c3cccc(F)c3F)c2c1 [Example 221, N-[3-(2,3-Difluorophenyl)-1H-indazol-5-yl]-2-methanesulfonyl-benzenesulfonamide]		94	50	60	84
Cc1cc(-c2n[nH]c3ccc(NS(=O)(=O)c4ccccc4S(C)(=O)=O)cc23)ccc1F [Example 222, N-[3-(4-Fluoro-3-methyl-phenyl)-1H-indazol-5-yl]-2-methanesulfonyl-benzenesulfonamide]		94	66	49	92
CS(=O)(=O)c1ccccc1S(=O)(=O)Nc1ccc2[nH]nc(-c3cccc(OCc4ccccc4)c3)c2c1 [Example 223, N-[3-(3-Benzyloxyphenyl)-1H-indazol-5-yl]-2-methanesulfonyl-benzenesulfonamide]		70	0	23	31
Cc1ccc(-c2n[nH]c3ccc(NS(=O)(=O)c4ccccc4S(C)(=O)=O)cc23)cc1F [Example 224, N-[3-(3-Fluoro-4-methyl-phenyl)-1H-indazol-5-yl]-2-methanesulfonyl-benzenesulfonamide]		91	70	71	92
CS(=O)(=O)c1ccccc1S(=O)(=O)Nc1ccc2[nH]nc(-c3cc(Cl)ccc3Cl)c2c1 [Example 225, N-[3-(2,5-Dichlorophenyl)-1H-indazol-5-yl]-2-methanesulfonyl-benzenesulfonamide]		51	27	12	49
